The source made the active and inactive calls. No cut-off for these calls is given here.
Tests used:
[1] = biological target: T1, Type-1 angiotensin II receptor (Homo sapiens, UniProt P30556); assay: Displacement of [125I]-Angiotensin II from Angiotensin II type-1 receptor in VSMC cells (unknown origin) by competition radioligand binding assay; type: cell-based
T1 sequence (P30556 whole entry): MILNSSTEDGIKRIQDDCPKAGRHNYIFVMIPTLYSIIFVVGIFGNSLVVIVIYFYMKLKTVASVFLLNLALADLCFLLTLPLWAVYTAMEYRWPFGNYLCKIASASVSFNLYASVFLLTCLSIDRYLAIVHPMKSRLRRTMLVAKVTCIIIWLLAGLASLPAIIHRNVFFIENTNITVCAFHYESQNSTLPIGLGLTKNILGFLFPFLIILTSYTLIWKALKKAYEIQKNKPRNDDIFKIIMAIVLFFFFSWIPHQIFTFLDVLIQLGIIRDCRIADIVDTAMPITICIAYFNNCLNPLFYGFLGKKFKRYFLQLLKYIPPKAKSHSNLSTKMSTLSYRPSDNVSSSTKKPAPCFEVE

[2] = biological target: T1, Type-1 angiotensin II receptor; assay: Displacement of [125I]-Angiotensin II from Angiotensin II type-1 receptor in VSMC cells (unknown origin) assessed as inhibition constant by competition radioligand binding assay; type: cell-based
Rattus norvegicus [3] = assay: Antihypertensive activity in spontaneously hypertensive rat assessed as decrease in blood pressure at 5 to 10 mg/kg, po; type: functional, organism-based; settings: dose 5-10 mg/kg
Rattus norvegicus [4] = assay: Antihypertensive activity in spontaneously hypertensive rat assessed as decrease in maximal mean blood pressure at 10 mg/kg, po; type: functional
Rattus norvegicus [5] = assay: Antihypertensive activity in spontaneously hypertensive rat assessed as decrease in maximal mean blood pressure at 10 mg/kg, po measured for 24 hrs; type: functional, organism-based
[6] = Cmax in spontaneously hypertensive Wistar rat at 10 mg/kg, po; type: ADME, organism-based; design: dose 10 mg/kg, route po; settings: in vivo
[7] = Tmax in spontaneously hypertensive Wistar rat at 10 mg/kg, po; type: ADME, organism-based; settings: in vivo
[8] = Half life in spontaneously hypertensive Wistar rat at 10 mg/kg, po; type: ADME, organism-based; settings: in vivo
[9] = AUC (0 to 72 hrs) in spontaneously hypertensive Wistar rat at 10 mg/kg, po; type: ADME, organism-based; design: dose 10 mg/kg, route po; settings: in vivo
[10] = AUC (0 to infinity) in spontaneously hypertensive Wistar rat at 10 mg/kg, po; type: ADME, organism-based; design: dose 10 mg/kg, route po; settings: in vivo
[11] = MRT (0 to 72 hrs) in spontaneously hypertensive Wistar rat at 10 mg/kg, po; type: ADME, organism-based; settings: in vivo
[12] = MRT (0 to infinity) in spontaneously hypertensive Wistar rat at 10 mg/kg, po; type: ADME, organism-based; settings: in vivo

Row | IC50 [1] | Ki [2] | Compound | Activity (Rattus norvegicus [3]) | further results
1 | 22.2 nM | 21.9 nM | CCCCc1c(C(=O)O)c2ccccc2n1C(=O)c1ccccc1 | Active | –
2 | 18 nM | 16.4 nM | Cc1ccc(S(=O)(=O)n2c(-c3ccccc3)c(C(=O)O)c3ccccc32)cc1 | Active | –
3 | 32.2 nM | 31.4 nM | O=C(O)c1c(COCc2ccccc2)n(C(=O)c2ccccc2)c2ccccc12 | Active | –
4 | 24.2 nM | 23.3 nM | Cc1ccc(S(=O)(=O)n2c(CO)c(C(=O)O)c3ccccc32)cc1 | Active | –
5 | – | – | CCCCc1nc(Cl)c(CO)n1Cc1ccc(-c2ccccc2-c2nnn[nH]2)cc1 [LOSARTAN] | – | Activity (Rattus norvegicus [4]): 42.5 mmHg
6 | 25.5 nM | 24.7 nM | CS(=O)(=O)n1c(COCc2ccccc2)c(C(=O)O)c2ccccc21 | Active | –
7 | 28.3 nM | 27.3 nM | CCCCc1c(C(=O)O)c2ccccc2n1S(=O)(=O)c1ccc(C)cc1 | Active | –
8 | 22.4 nM | 21.7 nM | Cc1ccc(S(=O)(=O)n2c(COCc3ccccc3)c(C(=O)O)c3ccccc32)cc1 | Active | –
9 | 27.1 nM | 26.3 nM | CS(=O)(=O)n1c(CO)c(C(=O)O)c2ccccc21 | Active | –
10 | 31.1 nM | 30.8 nM | O=C(O)c1c(CO)n(C(=O)c2ccccc2)c2ccccc12 | Active | –
11 | 11.3 nM | 10.8 nM | CS(=O)(=O)n1c(-c2ccccc2)c(C(=O)O)c2ccccc21 | Active | Activity (Rattus norvegicus [4]): 46.3 mmHg; Activity (Rattus norvegicus [5]): Active
12 | 12.3 nM | 11 nM | O=C(O)c1c(-c2ccccc2)n(C(=O)c2ccccc2)c2ccccc12 | Active | Activity (Rattus norvegicus [4]): 48.6 mmHg; Cmax [6]: 18.1 ng/mL; Tmax [7]: 2.7 h; half-life [8]: 19.9 h; AUC(0-t) [9]: 253 ng·h/mL; AUC(0-inf) [10]: 260 ng·h/mL; MRT last [11]: 20.2 h; MRT inf [12]: 30.3 h; Activity (Rattus norvegicus [5]): Active
13 | 29.2 nM | 28.6 nM | CCCCc1c(C(=O)O)c2ccccc2n1S(C)(=O)=O | Active | –

Source: ChEMBL document CHEMBL5247668, “Design, synthesis and biological evaluation of novel indole-3-carboxylic acid derivatives with antihypertensive activity” (Bioorg Med Chem Lett, 2023)
